Measured values: patent US6376537B1, “Cancer treatment” (priority 2000, dated 2002)

How the values were obtained:
hepatocellular carcinoma = test: Liver cancer case report, oral Simvastatin treatment; type: in vivo, human
Description: (§1) Its use according to this invention in the treatment of malignant disease consists of daily administration of an 80 mg tablet orally.
(§2) In order to avoid unforeseen side effects, the treatment is initiated at about 20 mg dose tablet once daily for one week. The dose then is increased to about 40 mg once daily for an additional week. The following week the dose is increased to about 60 mg and on the fourth week the dose is increased to about 80 mg (two tablets of 40 mg each), and to remain so indefinitely. The intervals for stepping up the dosage can vary.

metastatic colon cancer = test: Colon cancer case reports, oral Simvastatin treatment; type: in vivo, human; conditions: Case #1, 20 mg daily raised to 80 mg; over three to four months
Description: as §1, §2
Case #1: business person who underwent hemicolectomy for adenocarcinoma of the colon in 1993 was presented in 1995 to Cedars Sinai Medical Center Liver Team for possible cryotherapy. At that time they had multiple masses in both lobes of the liver as well as outside their liver and multiple nodules in both lungs. Clinically they were bedridden, weak and malnourished. They were rejected as a suitable candidate for needle cryotherapy because of their advanced disease, and was considered unrescuable with a life expectancy of several weeks.
The dose was increased by 20 mg increments every two weeks up to the dose of 80 mg. […] […] gained 27 pounds, became normally active, including extensive travel around the world.
Case #2: person underwent hemicolectomy for cancer of the colon in 1995 because of intestinal obstruction. […]

In the case of `CCC(C)(C)C(=O)O[C@H]1C[C@@H](C)C=C2C=C[C@H](C)[C@H](CC[C@@H]3C[C@@H](O)CC(=O)O3)[C@H]21` [Simvastatin], the “tumor marker alpha fetoprotein” value (hepatocellular carcinoma; patient, baseline above 55,000, started January 1999, value by April of 1999) was “less than 8”, the “tumor marker alpha fetoprotein” value (hepatocellular carcinoma; same patient, value in March 2000) was 2.4 and the weight gain (metastatic colon cancer) was 27 pounds.
